Assay [1] deals with T1, FGFR1 (Homo sapiens, UniProt P11362).
T1 construct: made in house; host or cells: E. coli (BL21-derived), T7 phage
The assay is described as follows: Kinase binding assay (kinase-tagged T7 phage, affinity beads, qPCR), Kd. The conditions noted are these: read-out: FGFR1 (Kd nM). The procedure:
(§1) Kinase-tagged T7 phage strains were prepared in an E. coli host derived from the BL21 strain. E. coli were grown to log-phase and infected with T7 phage and incubated with shaking at 32° C. until lysis. The lysates were centrifuged and filtered to remove cell debris. Streptavidin-coated magnetic beads were treated with biotinylated small molecule ligands for 30 minutes at room temperature to generate affinity resins for kinase assays. The liganded beads were blocked with excess biotin and washed with blocking buffer SeaBlock (Pierce), 1% BSA, 0.05% Tween 20, 1 mM DTT to remove unbound ligand and to reduce non-specific binding.
(§2) Test compounds were prepared as 111× stocks in 100% DMSO. Kds were determined using an 11-point 3-fold compound dilution series with three DMSO control points. […] The compounds were then diluted directly into the assays such that the final concentration of DMSO was 0.9%. All reactions performed in polypropylene 384-well plate. Each was a final volume of 0.02 ml. […] The kinase concentration in the eluates was measured by qPCR.
(§3) Binding constants were calculated with a standard dose-response curve using the Hill equation: […]
(§4) The Hill Slope was set to −1. Curves were fitted using a non-linear least square fit with the Levenberg-Marquardt algorithm.
(Real-time PCR tracks product formation cycle by cycle.)

Assay [2] deals with T2, FGFR3 (Homo sapiens, UniProt P22607).
T2 construct: made in house; host or cells: E. coli (BL21-derived), T7 phage
Described as above. Conditions: read-out: FGFR3 (Kd nM). As to the method:
as §1, §2, §3, §4

Where [3] appears, read: kinase binding assay, 11-point 3-fold dilution series.

Like-named read-outs stand apart in the source and are kept apart here.

T2 sequence (P22607 23-806): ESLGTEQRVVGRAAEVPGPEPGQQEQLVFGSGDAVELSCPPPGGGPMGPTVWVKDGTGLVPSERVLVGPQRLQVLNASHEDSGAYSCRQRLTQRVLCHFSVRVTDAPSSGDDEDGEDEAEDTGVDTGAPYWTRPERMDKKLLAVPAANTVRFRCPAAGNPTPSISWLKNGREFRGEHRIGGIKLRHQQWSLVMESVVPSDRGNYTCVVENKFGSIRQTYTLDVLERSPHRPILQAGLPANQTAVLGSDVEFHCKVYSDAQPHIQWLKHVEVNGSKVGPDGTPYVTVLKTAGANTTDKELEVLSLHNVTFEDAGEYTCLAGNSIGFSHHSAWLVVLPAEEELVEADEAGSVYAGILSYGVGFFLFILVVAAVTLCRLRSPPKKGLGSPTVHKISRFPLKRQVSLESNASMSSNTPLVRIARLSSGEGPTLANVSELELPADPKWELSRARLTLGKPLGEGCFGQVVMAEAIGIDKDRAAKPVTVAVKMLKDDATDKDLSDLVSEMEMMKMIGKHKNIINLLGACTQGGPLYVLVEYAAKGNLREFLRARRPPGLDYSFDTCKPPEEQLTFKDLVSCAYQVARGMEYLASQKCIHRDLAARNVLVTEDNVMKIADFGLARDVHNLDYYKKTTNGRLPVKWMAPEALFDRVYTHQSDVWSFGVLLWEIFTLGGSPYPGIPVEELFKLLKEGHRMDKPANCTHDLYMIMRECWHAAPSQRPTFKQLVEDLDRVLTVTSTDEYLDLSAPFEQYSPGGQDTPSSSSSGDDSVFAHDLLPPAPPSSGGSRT
T1 sequence (P11362 22-822): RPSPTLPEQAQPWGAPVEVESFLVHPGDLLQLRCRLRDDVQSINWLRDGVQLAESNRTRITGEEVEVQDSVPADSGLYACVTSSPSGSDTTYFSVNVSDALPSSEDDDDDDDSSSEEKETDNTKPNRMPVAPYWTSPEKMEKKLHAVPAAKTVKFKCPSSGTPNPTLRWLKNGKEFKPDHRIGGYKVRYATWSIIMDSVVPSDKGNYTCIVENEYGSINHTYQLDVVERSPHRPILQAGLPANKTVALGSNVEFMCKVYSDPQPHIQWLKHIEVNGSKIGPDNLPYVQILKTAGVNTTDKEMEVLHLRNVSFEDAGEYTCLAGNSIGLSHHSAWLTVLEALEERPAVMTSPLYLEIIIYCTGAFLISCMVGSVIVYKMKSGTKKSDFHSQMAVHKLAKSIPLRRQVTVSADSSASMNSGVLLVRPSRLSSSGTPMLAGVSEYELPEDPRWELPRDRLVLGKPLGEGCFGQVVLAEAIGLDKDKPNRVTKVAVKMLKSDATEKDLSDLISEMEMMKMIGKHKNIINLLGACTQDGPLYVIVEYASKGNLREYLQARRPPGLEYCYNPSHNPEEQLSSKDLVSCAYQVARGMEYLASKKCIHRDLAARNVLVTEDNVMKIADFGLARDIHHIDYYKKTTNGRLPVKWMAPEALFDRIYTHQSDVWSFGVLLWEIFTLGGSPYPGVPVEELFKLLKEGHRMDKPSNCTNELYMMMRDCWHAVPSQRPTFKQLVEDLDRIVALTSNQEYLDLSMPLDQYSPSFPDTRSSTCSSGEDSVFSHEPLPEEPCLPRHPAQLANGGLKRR

On to `C[C@@H](Oc1ccc2[nH]nc(-c3ccc(N4CC(N)(CC5CCCO5)C4)nn3)c2c1)c1c(Cl)cncc1Cl` (stereo partly drawn) [Example 305, 1-(6-(5-((R)-1-(3,5-dichloropyridin-4-yl)ethoxy)-1H-indazol-3-yl)pyridazin-3-yl)-3-((tetrahydrofuran-2-yl)methyl)azetidin-3-amine], for which the Kd in assay [1] and in assay [2] was 1 to 50 nM each time.
Consider `C[C@@H](Oc1ccc2[nH]nc(-c3cnc(N4CC(N)(CCCO)C4)c(F)c3)c2c1)c1c(Cl)cncc1Cl` [Example 307, (R)-3-(3-amino-1-(5-(5-(1-(3,5-dichloropyridin-4-yl)ethoxy)-1H-indazol-3-yl)-3-fluoropyridin-2-yl)azetidin-3-yl)propan-1-ol], for which the Kd in assay [1] and in assay [2] was 1 to 50 nM each time.
Consider `C[C@@H](Oc1ccc2[nH]nc(-c3cnc(N4CC(C)(NCC(=O)N(C)C)C4)c(F)c3)c2c1)c1c(Cl)cncc1Cl` [Example 311, (R)-2-((1-(5-(5-(1-(3,5-dichloropyridin-4-yl)ethoxy)-1H-indazol-3-yl)-3-fluoropyridin-2-yl)-3-methylazetidin-3-yl)amino)-N,N-dimethylacetamide], for which the equilibrium dissociation constant (Kd) in assay [1] and in assay [2] was 1 to 50 nM in each case.
For `C[C@@H](Oc1ccc2[nH]nc(-c3ccc(N4CC(C)(NCC(F)F)C4)nn3)c2c1)c1c(Cl)cncc1Cl` [Example 312, (R)-1-(6-(5-(1-(3,5-dichloropyridin-4-yl)ethoxy)-1H-indazol-3-yl)pyridazin-3-yl)-N-(2,2-difluoroethyl)-3-methylazetidin-3-amine], the Kd in assay [1] and in assay [2] was 1 to 50 nM each time.
For `C[C@@H](Oc1ccc2[nH]nc(-c3ccc(N4CC(C)(NCCC#N)C4)nn3)c2c1)c1c(Cl)cncc1Cl` [Example 313, (R)-3-((1-(6-(5-(1-(3,5-dichloropyridin-4-yl)ethoxy)-1H-indazol-3-yl)pyridazin-3-yl)-3-methylazetidin-3-yl)amino)propane-nitrile], the dissociation constant (Kd) in assay [1] and in assay [2] was 1 to 50 nM throughout.
In the case of `COc1cc2[nH]nc(-c3cnc(N4CC[C@@](C)(N)C4)c(F)c3)c2cc1O[C@H](C)c1c(Cl)cncc1Cl` [Example 315, (R)-1-(5-(5-((R)-1-(3,5-dichloropyridin-4-yl)ethoxy)-6-methoxy-1H-indazol-3-yl)-3-fluoropyridin-2-yl)-3-methylpyrrolidin-3-amine], the Kd in assay [1] and in assay [2] was 1 to 50 nM throughout.
On to `COCC1(N)CN(c2ncc(-c3n[nH]c4ccc(O[C@H](C)c5c(Cl)cncc5Cl)cc34)cc2F)C1` [Example 371, 1-[5-[5-[(1R)-1-(3,5-dichloro-4-pyridyl)ethoxy]-1H-indazol-3-yl]-3-fluoro-2-pyridyl]-3-(methoxy-methyl)aze-tidin-3-amine], for which the dissociation constant Kd in assay [1] and in assay [2] was 1 to 50 nM in each case.
For `C[C@@H](Oc1ccc2[nH]nc(-c3ccc(N4CC(N)(CCCO)C4)nn3)c2c1)c1c(Cl)cncc1Cl` [Example 372, (R)-3-(3-amino-1-(6-(5-(1-(3,5-dichloropyridin-4-yl)ethoxy)-1H-indazol-3-yl)pyridazin-3-yl)azetidin-3-yl)propan-1-ol], the Kd in assay [1] and in assay [2] was 1 to 50 nM in each case.
Take `C[C@H](O)CC1(N)CN(c2ccc(-c3n[nH]c4ccc(O[C@H](C)c5c(Cl)cncc5Cl)cc34)nn2)C1` [Example 373, (S)-1-(3-amino-1-(6-(5-((R)-1-(3,5-dichloropyridin-4-yl)ethoxy)-1H-indazol-3-yl)pyridazin-3-yl)azetidin-3-yl)propan-2-ol]: the Kd in assay [1] and in assay [2] was 1 to 50 nM each time.
Turning to `C[C@@H](O)CC1(N)CN(c2ccc(-c3n[nH]c4ccc(O[C@H](C)c5c(Cl)cncc5Cl)cc34)nn2)C1` [Example 374, (R)-1-(3-amino-1-(6-(5-((R)-1-(3,5-dichloropyridin-4-yl)ethoxy)-1H-indazol-3-yl)pyridazin-3-yl)azetidin-3-yl)propan-2-ol], the dissociation constant (Kd) in assay [1] and in assay [2] was 1 to 50 nM throughout.
With `C[C@@H](Oc1ccc2[nH]nc(-c3cnc(N4CCC(N)(CS(C)(=O)=O)CC4)c(F)c3)c2c1)c1c(Cl)cncc1Cl` [Example 375, (R)-1-(5-(5-(1-(3,5-dichloropyridin-4-yl)ethoxy)-1H-indazol-3-yl)-3-fluoropyridin-2-yl)-4-((methylsulfonyl)methyl)piperidin-4-amine], the Kd in assay [1] and in assay [2] was 1 to 50 nM throughout.
As for `COc1cc2[nH]nc(-c3ccc(N4CC(C)(N)C4)nc3)c2cc1O[C@H](C)c1c(Cl)cncc1Cl` [Example 379, (R)-1-(5-(5-(1-(3,5-dichloropyridin-4-yl)ethoxy)-6-methoxy-1H-indazol-3-yl)pyridin-2-yl)-3-methylazetidin-3-amine], the Kd in assay [1] and in assay [2] was 1 to 50 nM each time.
With `COc1cc2[nH]nc(-c3ccc(N4CC[C@](C)(N)C4)nc3)c2cc1O[C@H](C)c1c(Cl)cncc1Cl` [Example 381, (S)-1-(5-(5-((R)-1-(3,5-dichloropyridin-4-yl)ethoxy)-6-methoxy-1H-indazol-3-yl)pyridin-2-yl)-3-methyl-pyrrolidin-3-amine], the dissociation constant (Kd) in assay [1] and in assay [2] was 1 to 50 nM in each case.
On to `COc1cc2[nH]nc(-c3ccc(N4CCC(C)(N)CC4)nc3)c2cc1O[C@H](C)c1c(Cl)cncc1Cl` [Example 382, (R)-1-(5-(5-(1-(3,5-dichloropyridin-4-yl)ethoxy)-6-methoxy-1H-indazol-3-yl)pyridin-2-yl)-4-methylpiperidin-4-amine], for which the dissociation constant (Kd) in assay [1] (setting [3]) and in assay [2] (setting [3]) was 1 to 50 nM in each case.
For `COc1cc2[nH]nc(-c3cnc(N4CCC(C)(N)CC4)c(F)c3)c2cc1O[C@H](C)c1c(Cl)cncc1Cl` [Example 383, (R)-1-(5-(5-(1-(3,5-dichloropyridin-4-yl)ethoxy)-6-methoxy-1H-indazol-3-yl)-3-fluoropyridin-2-yl)-4-methylpiperidin-4-amine], the Kd in assay [1] (setting [3]) and in assay [2] (setting [3]) was 1 to 50 nM in each case.
On to `C[C@@H](O)CC1(N)CN(c2ncc(-c3n[nH]c4ccc(O[C@H](C)c5c(Cl)cncc5Cl)cc34)cc2F)C1` [Example 385, (R)-1-(3-amino-1-(5-(5-((R)-1-(3,5-dichloropyridin-4-yl)ethoxy)-1H-indazol-3-yl)-3-fluoropyridin-2-yl)azetidin-3-yl)propan-2-ol], for which the Kd in assay [1] (setting [3]) and in assay [2] (setting [3]) was 1 to 50 nM throughout.
Take `COc1cc2[nH]nc(-c3cnc(N4CC[C@](C)(N)C4)c(F)c3)c2cc1O[C@H](C)c1c(Cl)cncc1Cl` [Example 389, (S)-1-(5-(5-((R)-1-(3,5-dichloropyridin-4-yl)ethoxy)-6-methoxy-1H-indazol-3-yl)-3-fluoropyridin-2-yl)-3-methylpyrrolidin-3-amine]: the Kd in assay [1] (setting [3]) and in assay [2] (setting [3]) was 1 to 50 nM throughout.
Consider `COc1cc2[nH]nc(-c3ccc(N4CC(C)(N)C4)nn3)c2cc1O[C@H](C)c1c(Cl)cncc1Cl` [Example 393, (R)-1-(6-(5-(1-(3,5-dichloropyridin-4-yl)ethoxy)-6-methoxy-1H-indazol-3-yl)pyridazin-3-yl)-3-methylazetidin-3-amine], for which the Kd in assay [1] (setting [3]) and in assay [2] (setting [3]) was 1 to 50 nM each time.
As for `C[C@@H](Oc1ccc2[nH]nc(-c3cnc(N4CC(N)(CC(F)F)C4)c(F)c3)c2c1)c1c(Cl)cncc1Cl` [Example 394, (R)-1-(5-(5-(1-(3,5-dichloropyridin-4-yl)ethoxy)-1H-indazol-3-yl)-3-fluoropyridin-2-yl)-3-(2,2-difluoro-ethyl)azetidin-3-amine], the Kd in assay [1] (setting [3]) and in assay [2] (setting [3]) was 1 to 50 nM in each case.
With `C[C@@H](Oc1ccc2[nH]nc(-c3cnc(N4CCC(N)(CCS(C)(=O)=O)CC4)c(F)c3)c2c1)c1c(Cl)cncc1Cl` [Example 395, (R)-1-(5-(5-(1-(3,5-dichloropyridin-4-yl)ethoxy)-1H-indazol-3-yl)-3-fluoropyridin-2-yl)-4-(2-(methylsulfonyl)ethyl) piperidin-4-amine], the equilibrium dissociation constant (Kd) in assay [1] (setting [3]) and in assay [2] (setting [3]) was 1 to 50 nM throughout.
For the compound `C[C@@H](Oc1ccc2[nH]nc(-c3cnc(N4CC[C@](C)(N)C4)c(F)c3)c2c1)c1c(Cl)cncc1Cl` [Example 396, (S)-1-(5-(5-((R)-1-(3,5-dichloropyridin-4-yl)ethoxy)-1H-indazol-3-yl)-3-fluoropyridin-2-yl)-3-methylpyrrolidin-3-amine], the Kd in assay [1] (setting [3]) and in assay [2] (setting [3]) was 1 to 50 nM throughout.
As to `C[C@@H](Oc1ccc2[nH]nc(-c3ccc(N4CC(N)(CC(F)F)C4)nn3)c2c1)c1c(Cl)cncc1Cl` [Example 397, (R)-1-(6-(5-(1-(3,5-dichloropyridin-4-yl)ethoxy)-1H-indazol-3-yl)pyridazin-3-yl)-3-(2,2-difluoro-ethyl)azetidin-3-amine], the Kd in assay [1] (setting [3]) and in assay [2] (setting [3]) was 1 to 50 nM each time.
On to `C[C@@H](Oc1ccc2[nH]nc(-c3ccc(N4CCC(N)(CCS(C)(=O)=O)CC4)nn3)c2c1)c1c(Cl)cncc1Cl` [Example 398, (R)-1-(6-(5-(1-(3,5-dichloropyridin-4-yl)ethoxy)-1H-indazol-3-yl)pyridazin-3-yl)-4-(2-(methylsulfonyl)ethyl) piperidin-4-amine], for which the dissociation constant Kd in assay [1] (setting [3]) and in assay [2] (setting [3]) was 1 to 50 nM in each case.

Usually Kd stands for the free concentration of one partner at which half of the binding sites on the other are occupied at equilibrium, for simple one-to-one binding.

The values above are taken from patent US20250368666A1, “INDAZOLE COMPOUNDS” (TYRA BIOSCIENCES, INC., priority 2022, published 2025).
